# Read-outs that look alike come from different tables or passages of the source.
# Experiments:
# [1] = In vivo pharmacokinetics, rat; design: species or system Sprague Dawley rats; conditions: male, Sprague Dawley, plasma, oral 3.0 mg/kg
# Procedure: (§1) Example H. In Vivo Pharmacokinetics
# (§2) Test compounds were administered to male Sprague Dawley rats or male and female Cynomolgus monkeys intravenously or via oral gavage. For intravenous (IV) dosing, test compounds were dosed at 1 mg/kg using a formulation of 10% dimethylacetamide (DMAC), 10% propylene glycol (PG) in acidified saline via IV bolus for rat or 10 min IV infusion for monkey. For oral (PO) dosing, test compounds were dosed at 3.0 mg/kg using 5% DMAC in 0.5% methylcellulose in citrate buffer (pH˜2.5). Blood samples were collected at predose and various time points up to 24 hours postdose. All blood samples were collected using EDTA as the anticoagulant and centrifuged to obtain plasma samples. The plasma concentrations of test compounds were determined by LC-MS/MS methods. The measured plasma concentrations were used to calculate PK parameters by standard noncompartmental methods using Phoenix® WinNonlin software program (version 8.0, Pharsight Corporation) or similar software. In rats and monkeys, cassette dosing of test compounds were conducted to obtain preliminary PK parameters. In vivo pharmacokinetic experiments with male beagle dogs may be performed under the conditions described above.
# [2] = In vivo pharmacokinetics, cynomolgus monkey; design: species or system Cynomolgus monkeys; conditions: both sexes, plasma, oral 3.0 mg/kg, read-out: CYNO PO AUC
# Procedure: as §1, §2
# [3] = biological target: T1, FLT3 (Homo sapiens, UniProt P36888); assay: FLT3 enzymatic assay; format: biochemical; conditions: 1 mM ATP
# T1 sequence (P36888 27-993): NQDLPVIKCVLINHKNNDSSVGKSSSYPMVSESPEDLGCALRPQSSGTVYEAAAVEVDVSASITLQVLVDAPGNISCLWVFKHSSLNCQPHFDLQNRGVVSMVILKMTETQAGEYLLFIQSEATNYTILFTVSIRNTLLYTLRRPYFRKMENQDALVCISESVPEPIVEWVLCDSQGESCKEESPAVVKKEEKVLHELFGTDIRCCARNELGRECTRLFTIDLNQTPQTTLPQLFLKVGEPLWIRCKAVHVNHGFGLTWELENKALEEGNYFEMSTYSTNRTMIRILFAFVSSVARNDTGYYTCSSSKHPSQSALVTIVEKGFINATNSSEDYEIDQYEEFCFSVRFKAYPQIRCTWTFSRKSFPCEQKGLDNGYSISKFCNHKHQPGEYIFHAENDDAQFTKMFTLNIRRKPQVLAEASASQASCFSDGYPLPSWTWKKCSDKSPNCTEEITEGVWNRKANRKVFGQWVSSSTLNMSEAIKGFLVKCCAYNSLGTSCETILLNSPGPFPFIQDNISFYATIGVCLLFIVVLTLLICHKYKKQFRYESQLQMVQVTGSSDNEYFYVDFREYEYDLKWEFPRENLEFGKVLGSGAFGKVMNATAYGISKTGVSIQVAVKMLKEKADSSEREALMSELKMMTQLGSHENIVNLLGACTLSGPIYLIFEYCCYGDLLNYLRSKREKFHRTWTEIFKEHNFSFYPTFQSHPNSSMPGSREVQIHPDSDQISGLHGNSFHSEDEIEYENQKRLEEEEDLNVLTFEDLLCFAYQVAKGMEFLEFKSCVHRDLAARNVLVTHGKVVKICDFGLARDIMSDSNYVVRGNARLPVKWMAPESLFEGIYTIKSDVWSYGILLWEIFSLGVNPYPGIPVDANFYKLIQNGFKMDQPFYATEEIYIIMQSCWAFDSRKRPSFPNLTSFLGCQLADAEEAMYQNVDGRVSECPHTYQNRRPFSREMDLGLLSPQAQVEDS
# Method in brief: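 Kinase reaction at room temperature in HEPES 50 mM pH 7.0 with 10 mM MgCl2, 1 mM DTT: 0.011 nM FLT3, 1 mM ATP, 500 nM biotinylated TK substrate, 0.5% DMSO. After 60 min, HTRF read as 665/620 nm ratio; IC50 from fit of percent control activity versus log concentration.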
# [4] = biological target: T2, pseudo-kinase domain (JH2) of human V617F mutant JAK2 (Homo sapiens, UniProt O60674, F794H/V617F/W659A/W777A); assay: JAK2 LanthaScreen JH2-V617F binding assay; conditions: read-out: JH2 V617F Bind IC50
# T2 construct: pseudo-kinase domain (JH2, amino-acids 536-812 with 3 surface mutations W659A, W777A, F794H); His (C); purchased BPS Bioscience 79498; host or cells: baculovirus expression system
# Procedure: Example B. JAK2 LanthaScreen JH2-V617F Binding Assay
# JAK2 JH2-V617F binding assay utilizes pseudo-kinase domain (JH2, amino-acids 536-812 with 3 surface mutations W659A, W777A, F794H) of human V617F mutant JAK2 expressed as C-terminal His-Avi-tagged, biotinylated protein in a baculovirus expression system (BPS Bioscience, Catalog #79498). The assay was conducted in black 384-well polystyrene plates in a final reaction volume of 20 μL. JAK2 JH2-V617F (0.26 nM) was incubated with compounds (100 nL serially diluted in DMSO) in the presence of 50 nM Fluorescent JAK2-JH2 Tracer (MedChem Express Catalog #HY-102055) and 0.25 nM Streptavidin-Tb cryptate (Cisbio Part #610SATLB) in assay buffer (50 mM Tris, pH=7.5, 10 mM MgCl2, 0.01% Brij-35, 0.1% BSA, 1 mM EGTA, 5% Glycerol and 5 mM DTT). Non-specific binding was accessed in the presence of 2 mM ATP. After incubation for 1 hour at 25° C., LanthaScreen signals were read on a PHERAstar FS plate reader (BMG LABTECH). Data was analyzed with IDBS XLfit and GraphPad Prism 5.0 software using a four parameter dose response curve to determine IC50 for each compound.
# T2 sequence (O60674 536-812 V617F/W659A/W777A/F794H): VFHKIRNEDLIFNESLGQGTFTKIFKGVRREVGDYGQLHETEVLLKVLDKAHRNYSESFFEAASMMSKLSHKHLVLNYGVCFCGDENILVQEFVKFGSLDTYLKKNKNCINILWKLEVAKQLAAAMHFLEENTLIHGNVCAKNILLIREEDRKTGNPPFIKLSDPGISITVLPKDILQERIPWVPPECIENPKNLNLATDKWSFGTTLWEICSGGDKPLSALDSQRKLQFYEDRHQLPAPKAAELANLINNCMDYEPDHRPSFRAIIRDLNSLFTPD
Structure (SMILES),AUC [1] [µM·h],AUC [2] [µM·h],IC50 [3] [nM],IC50 ([4]; Table A) [nM],IC50 ([4]; Table C) [nM]
"[2H]C([2H])([2H])n1cc(-c2[nH]c3ncc4c(c3c2-c2ccc(C(C)(C)O)cc2)n([C@@H]2CC[C@@H](NC(=O)OC)C2)c(=O)n4C([2H])([2H])[2H])c(F)n1 [Example 10, Methyl ((1R,3R)-3-(7-(3-fluoro-1-(methyl-d3)-1H-pyrazol-4-yl)-8-(4-(2-hydroxypropan-2-yl)phenyl)-3-(methyl-d3)-2-oxo-3,6-dihydroimidazo[4,5-d]pyrrolo[2,3-b]pyridin-1(2H)-yl)cyclopentyl)carbamate]",> 1.5,0.5 to 1.5,250 to 1250,≤ 10,≤ 10
"COC(=O)N[C@@H]1CC[C@@H](n2c(=O)n(C)c3cnc4[nH]c(-c5cn(C)nc5OC)c(-c5ccc(F)cc5)c4c32)C1 [Example 1, Methyl ((1R,3R)-3-(8-(4-fluorophenyl)-7-(3-methoxy-1-methyl-1H-pyrazol-4-yl)-3-methyl-2-oxo-3,6-dihydroimidazo[4,5-d]pyrrolo[2,3-b]pyridin-1(2H)-yl)cyclopentyl)carbamate]",> 1.5,> 1.5,> 2500,≤ 10,≤ 10
"[2H]C([2H])([2H])n1ncc2cc(-c3c(-c4cn(C)nc4OC)[nH]c4ncc5c(c34)n([C@@H]3CC[C@@H](NC(=O)OC)C3)c(=O)n5C)ccc21 [Example 5, Methyl ((1R,3R)-3-(7-(3-methoxy-1-methyl-1H-pyrazol-4-yl)-3-methyl-8-(1-(methyl-d3)-1H-indazol-5-yl)-2-oxo-3,6-dihydroimidazo[4,5-d]pyrrolo[2,3-b]pyridin-1(2H)-yl)cyclopentyl)carbamate]",0.5 to 1.5,> 1.5,1250 to 2500,≤ 10,≤ 10
"[2H]C([2H])([2H])n1cc(-c2[nH]c3ncc4c(c3c2-c2ccc3c(cnn3C([2H])([2H])[2H])c2)n([C@@H]2CC[C@@H](NC(=O)OC)C2)c(=O)n4C([2H])([2H])[2H])c(F)n1 [Example 6, Methyl ((1R,3R)-3-(7-(3-fluoro-1-(methyl-d3)-1H-pyrazol-4-yl)-3-(methyl-d3)-8-(1-(methyl-d3)-1H-indazol-5-yl)-2-oxo-3,6-dihydroimidazo[4,5-d]pyrrolo[2,3-b]pyridin-1(2H)-yl)cyclopentyl)carbamate]",0.5 to 1.5,> 1.5,1250 to 2500,≤ 10,≤ 10
"COC(=O)N[C@@H]1CC[C@@H](n2c(=O)n(C)c3cnc4[nH]c(-c5cn(C)nc5OC)c(-c5ccccc5)c4c32)C1 [Example 2, Methyl ((1R,3R)-3-(7-(3-methoxy-1-methyl-1H-pyrazol-4-yl)-3-methyl-2-oxo-8-phenyl-3,6-dihydroimidazo[4,5-d]pyrrolo[2,3-b]pyridin-1(2H)-yl)cyclopentyl)carbamate]",> 1.5,> 1.5,> 2500,≤ 10,≤ 10
"[2H]C([2H])([2H])n1cc(-c2[nH]c3ncc4c(c3c2-c2ccc(F)cc2)n([C@@H]2CC[C@@H](NC(=O)OC)C2)c(=O)n4C([2H])([2H])[2H])c(F)n1 [Example 7, Methyl ((1R,3R)-3-(7-(3-fluoro-1-(methyl-d3)-1H-pyrazol-4-yl)-8-(4-fluorophenyl)-3-(methyl-d3)-2-oxo-3,6-dihydroimidazo[4,5-d]pyrrolo[2,3-b]pyridin-1(2H)-yl)cyclopentyl)carbamate]",> 1.5,> 1.5,> 2500,≤ 10,≤ 10
"COC(=O)N[C@@H]1CC[C@@H](n2c(=O)n(C)c3cnc4[nH]c(-c5cn(C)nc5OC)c(-c5ccc(OC)c(F)c5)c4c32)C1 [Example 4, Methyl ((1R,3R)-3-(8-(3-fluoro-4-methoxyphenyl)-7-(3-methoxy-1-methyl-1H-pyrazol-4-yl)-3-methyl-2-oxo-3,6-dihydroimidazo[4,5-d]pyrrolo[2,3-b]pyridin-1(2H)-yl)cyclopentyl)carbamate]",> 1.5,> 1.5,> 2500,≤ 10,≤ 10
"COC(=O)N[C@@H]1CC[C@@H](n2c(=O)n(C)c3cnc4[nH]c(-c5cn(C)nc5OC)c(-c5cccc(F)c5)c4c32)C1 [Example 3, Methyl ((1R,3R)-3-(8-(3-fluorophenyl)-7-(3-methoxy-1-methyl-1H-pyrazol-4-yl)-3-methyl-2-oxo-3,6-dihydroimidazo[4,5-d]pyrrolo[2,3-b]pyridin-1(2H)-yl)cyclopentyl)carbamate]",> 1.5,> 1.5,> 2500,≤ 10,≤ 10
"[2H]C([2H])([2H])n1ncc2cc(-c3c(-c4cn(C([2H])([2H])C([2H])([2H])[2H])nc4F)[nH]c4ncc5c(c34)n([C@@H]3CC[C@@H](NC(=O)OC)C3)c(=O)n5C([2H])([2H])[2H])ccc21 [Example 15, Methyl ((1R,3R)-3-(7-(1-(ethyl-d5)-3-fluoro-1H-pyrazol-4-yl)-3-(methyl-d3)-8-(1-(methyl-d3)-1H-indazol-5-yl)-2-oxo-3,6-dihydroimidazo[4,5-d]pyrrolo[2,3-b]pyridin-1(2H)-yl)cyclopentyl)carbamate]",0.5 to 1.5,,250 to 1250,≤ 10,≤ 10
"[2H]C([2H])([2H])n1cc(-c2[nH]c3ncc4c(c3c2-c2ccc3c(c2)COC3(C)C)n([C@@H]2CC[C@@H](NC(=O)OC)C2)c(=O)n4C([2H])([2H])[2H])c(F)n1 [Example 8, Methyl ((1R,3R)-3-(8-(1,1-dimethyl-1,3-dihydroisobenzofuran-5-yl)-7-(3-fluoro-1-(methyl-d3)-1H-pyrazol-4-yl)-3-(methyl-d3)-2-oxo-3,6-dihydroimidazo[4,5-d]pyrrolo[2,3-b]pyridin-1(2H)-yl)cyclopentyl)carbamate]",> 1.5,≤ 0.5,> 2500,≤ 10,≤ 10
